This experiment addresses T1, endogenous BCL-xL (Homo sapiens, UniProt Q07817).
T1 construct: endogenous in cells; host or cells: COR-L105 (ECACC No. 92031918); NCI-H1650 (ATCC No. CRL-5883)
Put plainly: Degradation of endogenous BCL-xL in NCI-H1650 (ProteinSimple Jess). In kind it is cell-based. To be noted: NCI-H1650, dose 10 nM, 24 hours. How it is done:
The BCL-xL degrader low molecular weight compounds were tested against two endogenous cancer cell lines: • COR-L105: ECACC No. 92031918 cultured in RPMI-1640+10% FBS • NCI-H1650: (ATCC No. CRL-5883 cultured in RPMI-1640+10% FBS
The ability of the BCL-xL degrader low molecular weight compounds to degrade endogenous BCL-xL was assessed using the ProteinSimple 2-40 kDa Jess Separation Module.
Cell lines were cultured in media that is optimal for their growth at 5% CO2, 37° C. in a tissue culture incubator. Prior to seeding for the degradation assay, the cells were split at least 2 days before the assay to ensure optimal growth density. On the day of seeding, adherent cells were lifted off tissue culture flasks using 0.25% trypsin. Cell viability and cell density were determined using a cell counter (Vi-Cell XR Cell Viability Analyzer, Beckman Coulter). Cells with higher than 85% viability were seeded for the assay.
The COR-L105 and the NCI-H1650 cell line were seeded in 6-well clear TC-treated multiple well plates (Costar® cat. #3516). Cells were seeded at a density of 2,000,000 cells per well in 2.5 mL of standard growth media. Plates were incubated at 5% CO2, 37° C. overnight in a tissue culture incubator. On the day of dosing, BCL-xL degrader low molecular weight compounds and a BCL-xL inhibitor control were prepared at 6× in standard growth media. […] A control well of untreated cells was also included in the study. Each drug concentration was tested in singlet. Plates were incubated at 5% CO2, 37° C. for 24 hours in a tissue culture incubator.
After 24 hours, the adherent cells were lifted off tissue culture plates using 0.25% trypsin. Standard growth media was added to quench the trypsin and centrifuged for 5 minutes at 1500 rpm. […]
Protein was quantified using a Pierce™ BCA Protein Assay Kit (ThermoFisher, cat #23225) following the manufacturer's instructions. […] A SpectraMax M Series Multi-Mode Microplate Reader was used to measure the absorbance at 562 nm. […] Only values that fell within the range of the standard curve were accepted for quantification. […]
T1 sequence (Q07817 whole entry): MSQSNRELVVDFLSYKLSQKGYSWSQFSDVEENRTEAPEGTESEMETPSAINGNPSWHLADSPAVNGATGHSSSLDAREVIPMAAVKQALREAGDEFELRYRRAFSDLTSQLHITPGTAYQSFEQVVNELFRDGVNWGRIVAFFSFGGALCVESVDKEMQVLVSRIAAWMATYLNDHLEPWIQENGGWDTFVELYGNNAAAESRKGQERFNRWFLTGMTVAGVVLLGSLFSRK
For the compound `Cc1ncsc1-c1ccc(CNC(=O)[C@@H]2C[C@@H](O)CN2C(=O)[C@@H](NC(=O)CCCCCCCCCCC(=O)N2CCN(CC#Cc3ccc(OCCCc4sc(N5CCCc6c5nnc(Nc5nc7ccccc7s5)c6C)nc4C(=O)O)c(F)c3)CC2)C(C)(C)C)cc1` [Example 48, 2-(3-(benzo[d]thiazol-2-ylamino)-4-methyl-6,7-dihydropyrido [2,3-c]pyridazin-8(5H)-yl)-5-(3-(2-fluoro-4-(3-(4-(12-(((S)-1-((2S,4R)-4-hydroxy-2-((4-(4-methylthiazol-5-yl)benzyl)carbamoyl)pyrrolidin-1-yl)-3,3-dimethyl-1-oxobutan-2-yl)amino)-12-oxododecanoyl)piperazin-1-yl)prop-1-yn-1-yl)phenoxy)propyl)thiazole-4-carboxylic acid], the “% BCL-xL vs. Untreated, NCI-H1650” value turned out to be 1.05%.

For the compound `Cc1ncsc1-c1ccc([C@H](C)NC(=O)[C@@H]2C[C@@H](O)CN2C(=O)[C@@H](NC(=O)CCCCCCCCCCC(=O)N2CCN(CC#Cc3ccc(OCCCc4sc(N5CCCc6c5nnc(Nc5nc7ccccc7s5)c6C)nc4C(=O)O)c(F)c3)CC2)C(C)(C)C)cc1` [Example 46, 2-(3-(benzo[d]thiazol-2-ylamino)-4-methyl-6,7-dihydropyrido [2,3-c]pyridazin-8(5H)-yl)-5-(3-(2-fluoro-4-(3-(4-(12-(((S)-1-((2S,4R)-4-hydroxy-2-(((S)-1-(4-(4-methylthiazol-5-yl)phenyl)ethyl)carbamoyl)pyrrolidin-1-yl)-3,3-dimethyl-1-oxobutan-2-yl)amino)-12-oxododecanoyl)piperazin-1-yl)prop-1-yn-1-yl)phenoxy)propyl)thiazole-4-carboxylic acid], the “% BCL-xL vs. Untreated, NCI-H1650” value is reported as 16.23%.

In the case of `Cc1ncsc1-c1ccc([C@H](C)NC(=O)[C@@H]2C[C@@H](O)CN2C(=O)[C@@H](NC(=O)CCCCCCCCCCCN2CCN(CC#Cc3ccc(OCCCc4sc(N5CCCc6c5nnc(Nc5nc7ccccc7s5)c6C)nc4C(=O)O)c(F)c3)CC2)C(C)(C)C)cc1` [Example 51, 2-(3-(benzo[d]thiazol-2-ylamino)-4-methyl-6,7-dihydropyrido [2,3-c]pyridazin-8(5H)-yl)-5-(3-(2-fluoro-4-(3-(4-(12-(((S)-1-((2S,4R)-4-hydroxy-2-(((S)-1-(4-(4-methylthiazol-5-yl)phenyl)ethyl)carbamoyl)pyrrolidin-1-yl)-3,3-dimethyl-1-oxobutan-2-yl)amino)-12-oxododecyl)piperazin-1-yl)prop-1-yn-1-yl)phenoxy)propyl)thiazole-4-carboxylic acid], the “% BCL-xL vs. Untreated, NCI-H1650” value is listed as 9.22%.
